From the supplement of paper PMC10307832

Tests used:
Test in all cases: relative viability (nuclei count vs DMSO), 5 days (fraction); higher = more cells survive
A-427 = test system: A-427
In short: (§1)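 Relative viability equals treated-well nuclei counts divided by vehicle-well nuclei counts. Counts came from 4× images of lung cancer cell lines grown in 1536-well plates for 5 days after pin-tool dosing on the day after seeding. Dosing used one drug alone or a fixed anchor-drug dose plus five library-drug doses (not always all listed) in √10 steps, and values are medians of duplicate plates.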

A549 = test system: A549
In short: as §1

CAL-12T = test system: CAL-12T
In short: as §1

Calu-6 = test system: Calu-6
In short: as §1

EBC-1 = test system: EBC-1
In short: as §1

IA-LM = test system: IA-LM
In short: as §1

LK-2 = test system: LK-2
In short: as §1

NCI-H1299 = test system: NCI-H1299
In short: as §1

NCI-H1623 = test system: NCI-H1623
In short: as §1

NCI-H1651 = test system: NCI-H1651
In short: as §1

NCI-H1703 = test system: NCI-H1703
In short: as §1

NCI-H1755 = test system: NCI-H1755
In short: as §1

NCI-H1648 = test system: NCI-H1648
In short: as §1

CCNC(=O)c1noc(-c2cc(C(C)C)c(O)cc2O)c1-c1ccc(CN2CCOCC2)cc1 [Luminespib] + COc1cc2c(Oc3ccc(NC(=O)C4(C(=O)Nc5ccc(F)cc5)CC4)cc3F)ccnc2cc1OCCCN1CCOCC1 [Foretinib] (partner 0.25 µM)
relative viability (A-427; first compound 0.002 µM): 1.14 | relative viability (A-427; first compound 0.006325 µM): 0.969 | relative viability (A-427; first compound 0.02 µM): 0.84 | relative viability (A-427; first compound 0.06325 µM): 1.06 | relative viability (A-427; first compound 0.2 µM): 1.1 | relative viability (A549; first compound 0.002 µM): 1.04 | relative viability (A549; first compound 0.006325 µM): 0.842 | relative viability (A549; first compound 0.02 µM): 1.09 | relative viability (A549; first compound 0.06325 µM): 0.138 | relative viability (A549; first compound 0.2 µM): 0.0269 | relative viability (CAL-12T; first compound 0.002 µM): 1.25 | relative viability (CAL-12T; first compound 0.006325 µM): 1.15 | relative viability (CAL-12T; first compound 0.02 µM): 0.824 | relative viability (CAL-12T; first compound 0.06325 µM): 0.127 | relative viability (CAL-12T; first compound 0.2 µM): 0.128 | relative viability (Calu-6; first compound 0.002 µM): 0.888 | relative viability (Calu-6; first compound 0.006325 µM): 0.889 | relative viability (Calu-6; first compound 0.02 µM): 1.03 | relative viability (Calu-6; first compound 0.06325 µM): 0.0858 | relative viability (Calu-6; first compound 0.2 µM): 0.086 | relative viability (EBC-1; first compound 0.002 µM): 0.0894 | relative viability (EBC-1; first compound 0.006325 µM): 0.116 | relative viability (EBC-1; first compound 0.02 µM): 0.113 | relative viability (EBC-1; first compound 0.06325 µM): 0.0992 | relative viability (EBC-1; first compound 0.2 µM): 0.104 | relative viability (IA-LM; first compound 0.002 µM): 1.07 | relative viability (IA-LM; first compound 0.006325 µM): 1.13 | relative viability (IA-LM; first compound 0.02 µM): 1.23 | relative viability (IA-LM; first compound 0.06325 µM): 0.0645 | relative viability (IA-LM; first compound 0.2 µM): 0.0409 | relative viability (LK-2; first compound 0.002 µM): 1.66 | relative viability (LK-2; first compound 0.006325 µM): 1.44 | relative viability (LK-2; first compound 0.02 µM): 0.604 | relative viability (LK-2; first compound 0.06325 µM): 0.858 | relative viability (LK-2; first compound 0.2 µM): 0.88 | relative viability (NCI-H1299; first compound 0.002 µM): 1.08 | relative viability (NCI-H1299; first compound 0.006325 µM): 0.989 | relative viability (NCI-H1299; first compound 0.02 µM): 1.09 | relative viability (NCI-H1299; first compound 0.06325 µM): 1.07 | relative viability (NCI-H1299; first compound 0.2 µM): 0.191 | relative viability (NCI-H1623; first compound 0.002 µM): 0.885 | relative viability (NCI-H1623; first compound 0.006325 µM): 0.783 | relative viability (NCI-H1623; first compound 0.02 µM): 0.67 | relative viability (NCI-H1623; first compound 0.06325 µM): 0.673 | relative viability (NCI-H1623; first compound 0.2 µM): 0.375 | relative viability (NCI-H1651; first compound 0.002 µM): 0.837 | relative viability (NCI-H1651; first compound 0.006325 µM): 0.718 | relative viability (NCI-H1651; first compound 0.02 µM): 0.826 | relative viability (NCI-H1651; first compound 0.06325 µM): 0.309 | relative viability (NCI-H1651; first compound 0.2 µM): 0.208 | relative viability (NCI-H1703; first compound 0.002 µM): 0.332 | relative viability (NCI-H1703; first compound 0.006325 µM): 0.348 | relative viability (NCI-H1703; first compound 0.02 µM): 0.396 | relative viability (NCI-H1703; first compound 0.06325 µM): 0.21 | relative viability (NCI-H1703; first compound 0.2 µM): 0.222 | relative viability (NCI-H1755; first compound 0.002 µM): 0.874 | relative viability (NCI-H1755; first compound 0.006325 µM): 0.946 | relative viability (NCI-H1755; first compound 0.02 µM): 0.948 | relative viability (NCI-H1755; first compound 0.06325 µM): 0.555 | relative viability (NCI-H1755; first compound 0.2 µM): 0.305

Cc1csc(=NC2CCCCC2)n1/N=C/c1ccc(O)c(O)c1O [MIM1] + Cc1cc(Nc2cc(N3CCN(C)CC3)nc(Sc3ccc(NC(=O)C4CC4)cc3)n2)n[nH]1 [Tozasertib] (partner 0.1 µM)
relative viability (A-427; first compound 0.2 µM): 0.266 | relative viability (A-427; first compound 2 µM): 0.202 | relative viability (A-427; first compound 6.325 µM): 0.249 | relative viability (A-427; first compound 20 µM): 0.164 | relative viability (CAL-12T; first compound 0.2 µM): 0.244 | relative viability (CAL-12T; first compound 0.6325 µM): 0.254 | relative viability (CAL-12T; first compound 2 µM): 0.303 | relative viability (CAL-12T; first compound 6.325 µM): 0.206 | relative viability (CAL-12T; first compound 20 µM): 0.204 | relative viability (LK-2; first compound 0.2 µM): 0.186 | relative viability (LK-2; first compound 2 µM): 0.161 | relative viability (LK-2; first compound 6.325 µM): 0.166 | relative viability (LK-2; first compound 20 µM): 0.142 | relative viability (NCI-H1623; first compound 0.2 µM): 0.454 | relative viability (NCI-H1623; first compound 0.6325 µM): 0.402 | relative viability (NCI-H1623; first compound 2 µM): 0.43 | relative viability (NCI-H1623; first compound 6.325 µM): 0.339 | relative viability (NCI-H1623; first compound 20 µM): 0.352 | relative viability (NCI-H1648; first compound 0.2 µM): 0.371 | relative viability (NCI-H1648; first compound 0.6325 µM): 0.369 | relative viability (NCI-H1648; first compound 2 µM): 0.374 | relative viability (NCI-H1648; first compound 6.325 µM): 0.326 | relative viability (NCI-H1648; first compound 20 µM): 0.172 | relative viability (NCI-H1651; first compound 0.2 µM): 0.601 | relative viability (NCI-H1651; first compound 0.6325 µM): 0.689 | relative viability (NCI-H1651; first compound 2 µM): 0.565 | relative viability (NCI-H1651; first compound 6.325 µM): 0.607 | relative viability (NCI-H1651; first compound 20 µM): 0.503 | relative viability (NCI-H1755; first compound 0.2 µM): 0.606 | relative viability (NCI-H1755; first compound 0.6325 µM): 0.629 | relative viability (NCI-H1755; first compound 2 µM): 0.563 | relative viability (NCI-H1755; first compound 6.325 µM): 0.477 | relative viability (NCI-H1755; first compound 20 µM): 0.266
